Experiments:
Assay type in all cases: cell-based
Conditions in all cases: compounds at 50 nM and 500 nM
[1] = target: T1, IKZF3 (Homo sapiens, UniProt Q96SW2+Q9UKT9); test: Western blot degradation of IKZF3 in hPBMCs (24 h)
T1 construct: The supernatant was aspirated as the extracted total cell protein; endogenous in cells; host or cells: human peripheral blood mononuclear cells (hPBMCs)
Outline: (§1)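 Thawed human PBMCs, 1×10^6 cells/mL; cpd 50 nM or 500 nM, 24 h; RIPA lysis, BCA, SDS-PAGE, NC transfer, immunoblot. Readout: grayscale/internal control → % remaining; degradation = 1 − remaining.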

[2] = target: T2, GSPT1 (Homo sapiens, UniProt P15170+Q96SW2); test: Western blot degradation of GSPT1 in hPBMCs (24 h)
T2 construct: The supernatant was aspirated as the extracted total cell protein; endogenous in cells; host or cells: human peripheral blood mononuclear cells (hPBMCs)
Outline: as §1

[3] = target: T3, CK1α (Homo sapiens, UniProt P48729+Q96SW2); test: Western blot degradation of CK1α in hPBMCs (24 h)
T3 construct: The supernatant was aspirated as the extracted total cell protein; endogenous in cells; host or cells: human peripheral blood mononuclear cells (hPBMCs)
Outline: as §1

[4] = target: T4, WEE1 (Homo sapiens, UniProt P30291+Q96SW2); test: Western blot degradation of WEE1 in hPBMCs (24 h)
T4 construct: The supernatant was aspirated as the extracted total cell protein; endogenous in cells; host or cells: human peripheral blood mononuclear cells (hPBMCs)
Outline: as §1

[5] = target: T5, IKZF1 (Homo sapiens, UniProt Q13422+Q96SW2); test: Western blot degradation of IKZF1 in hPBMCs (24 h)
T5 construct: The supernatant was aspirated as the extracted total cell protein; endogenous in cells; host or cells: human peripheral blood mononuclear cells (hPBMCs)
Outline: as §1

[6] = target: T6, IKZF2 (Homo sapiens, UniProt Q96SW2+Q9UKS7); test: Western blot degradation of IKZF2 in hPBMCs (24 h)
T6 construct: The supernatant was aspirated as the extracted total cell protein; endogenous in cells; host or cells: human peripheral blood mononuclear cells (hPBMCs)
Outline: as §1

T1 sequence (Q9UKT9 whole entry): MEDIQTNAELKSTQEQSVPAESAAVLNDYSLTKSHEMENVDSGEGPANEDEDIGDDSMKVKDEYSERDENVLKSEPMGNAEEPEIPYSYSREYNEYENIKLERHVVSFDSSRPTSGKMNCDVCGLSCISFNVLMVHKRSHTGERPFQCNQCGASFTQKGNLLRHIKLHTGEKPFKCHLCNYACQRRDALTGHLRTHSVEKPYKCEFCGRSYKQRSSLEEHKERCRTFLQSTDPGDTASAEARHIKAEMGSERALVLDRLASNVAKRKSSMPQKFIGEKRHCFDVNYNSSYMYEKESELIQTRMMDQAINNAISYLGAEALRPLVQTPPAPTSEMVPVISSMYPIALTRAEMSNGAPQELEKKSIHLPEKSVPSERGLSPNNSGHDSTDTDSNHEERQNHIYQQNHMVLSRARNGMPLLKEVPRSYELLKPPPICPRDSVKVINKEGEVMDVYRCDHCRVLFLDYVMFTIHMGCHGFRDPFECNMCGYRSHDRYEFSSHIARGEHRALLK
T1 sequence (Q96SW2 whole entry): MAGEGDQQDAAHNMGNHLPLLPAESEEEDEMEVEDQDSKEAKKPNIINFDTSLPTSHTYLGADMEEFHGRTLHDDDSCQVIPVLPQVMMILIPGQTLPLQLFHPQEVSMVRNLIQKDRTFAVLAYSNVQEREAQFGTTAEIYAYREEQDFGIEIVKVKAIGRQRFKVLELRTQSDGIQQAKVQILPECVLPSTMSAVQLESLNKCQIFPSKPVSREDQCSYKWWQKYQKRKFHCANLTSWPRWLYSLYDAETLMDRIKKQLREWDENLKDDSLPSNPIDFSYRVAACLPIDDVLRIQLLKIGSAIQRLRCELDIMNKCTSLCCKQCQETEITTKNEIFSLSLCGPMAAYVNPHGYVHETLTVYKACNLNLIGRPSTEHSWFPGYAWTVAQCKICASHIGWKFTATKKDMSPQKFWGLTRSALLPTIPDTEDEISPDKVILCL
T1 sequence (Q16531 whole entry partner): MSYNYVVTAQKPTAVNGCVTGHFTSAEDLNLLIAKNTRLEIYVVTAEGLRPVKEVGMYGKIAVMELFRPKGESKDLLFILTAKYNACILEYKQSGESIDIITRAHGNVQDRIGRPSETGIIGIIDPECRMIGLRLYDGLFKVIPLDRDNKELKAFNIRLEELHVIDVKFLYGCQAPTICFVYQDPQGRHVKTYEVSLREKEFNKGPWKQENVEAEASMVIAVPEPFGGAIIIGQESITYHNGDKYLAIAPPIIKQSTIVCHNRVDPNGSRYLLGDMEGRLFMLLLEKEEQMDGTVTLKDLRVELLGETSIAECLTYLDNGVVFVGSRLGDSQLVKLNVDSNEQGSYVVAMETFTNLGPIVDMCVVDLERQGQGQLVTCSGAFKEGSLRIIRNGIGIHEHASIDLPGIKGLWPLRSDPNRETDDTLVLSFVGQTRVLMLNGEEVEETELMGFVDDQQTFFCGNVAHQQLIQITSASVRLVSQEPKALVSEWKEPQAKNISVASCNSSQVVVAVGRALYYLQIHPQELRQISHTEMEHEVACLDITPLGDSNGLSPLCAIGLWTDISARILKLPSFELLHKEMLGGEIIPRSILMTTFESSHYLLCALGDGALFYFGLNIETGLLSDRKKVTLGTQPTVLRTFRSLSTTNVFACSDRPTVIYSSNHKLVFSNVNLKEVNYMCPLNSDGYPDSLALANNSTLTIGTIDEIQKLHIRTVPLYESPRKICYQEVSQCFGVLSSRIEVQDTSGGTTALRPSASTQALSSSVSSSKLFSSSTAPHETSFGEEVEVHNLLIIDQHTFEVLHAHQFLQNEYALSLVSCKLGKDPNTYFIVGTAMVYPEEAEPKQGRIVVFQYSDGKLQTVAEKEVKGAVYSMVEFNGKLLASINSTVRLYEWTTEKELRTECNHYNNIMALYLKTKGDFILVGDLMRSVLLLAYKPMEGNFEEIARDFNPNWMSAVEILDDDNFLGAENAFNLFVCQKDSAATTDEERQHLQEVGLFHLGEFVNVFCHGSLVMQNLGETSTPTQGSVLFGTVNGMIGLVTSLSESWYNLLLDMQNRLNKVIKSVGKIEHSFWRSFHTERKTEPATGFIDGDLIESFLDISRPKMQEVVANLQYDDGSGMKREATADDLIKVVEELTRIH
T4 sequence (P30291 whole entry): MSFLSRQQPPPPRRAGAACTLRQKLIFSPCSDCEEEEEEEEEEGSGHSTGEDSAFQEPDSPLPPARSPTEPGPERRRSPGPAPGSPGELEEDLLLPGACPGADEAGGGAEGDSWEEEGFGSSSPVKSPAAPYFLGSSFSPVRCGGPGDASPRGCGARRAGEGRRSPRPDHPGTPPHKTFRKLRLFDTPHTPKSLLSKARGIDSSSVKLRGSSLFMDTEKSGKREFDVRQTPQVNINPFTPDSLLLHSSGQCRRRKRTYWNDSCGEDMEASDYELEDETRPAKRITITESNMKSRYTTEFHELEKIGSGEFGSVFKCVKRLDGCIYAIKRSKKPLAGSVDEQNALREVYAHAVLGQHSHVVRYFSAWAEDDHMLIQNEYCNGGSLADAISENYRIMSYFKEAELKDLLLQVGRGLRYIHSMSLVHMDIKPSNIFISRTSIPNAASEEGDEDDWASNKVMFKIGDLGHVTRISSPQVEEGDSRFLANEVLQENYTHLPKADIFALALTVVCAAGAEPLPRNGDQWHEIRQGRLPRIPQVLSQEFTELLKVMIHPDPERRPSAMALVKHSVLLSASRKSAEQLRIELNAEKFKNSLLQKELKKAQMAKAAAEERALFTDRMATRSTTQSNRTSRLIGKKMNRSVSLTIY
T4 sequence (Q96SW2 whole entry): as the sequence (Q96SW2 whole entry) above
T4 sequence (Q16531 whole entry partner): as the sequence (Q16531 whole entry partner) above
T3 sequence (P48729 whole entry): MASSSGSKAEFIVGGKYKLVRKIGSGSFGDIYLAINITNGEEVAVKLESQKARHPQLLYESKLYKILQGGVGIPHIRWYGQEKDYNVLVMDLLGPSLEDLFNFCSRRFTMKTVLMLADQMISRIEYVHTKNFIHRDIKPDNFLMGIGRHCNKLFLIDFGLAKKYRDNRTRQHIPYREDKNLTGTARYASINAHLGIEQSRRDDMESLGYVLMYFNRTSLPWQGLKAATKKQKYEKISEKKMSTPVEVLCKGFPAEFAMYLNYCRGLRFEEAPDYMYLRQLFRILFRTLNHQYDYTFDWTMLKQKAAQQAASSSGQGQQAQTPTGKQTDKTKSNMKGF
T3 sequence (Q96SW2 whole entry): as the sequence (Q96SW2 whole entry) above
T3 sequence (Q16531 whole entry partner): as the sequence (Q16531 whole entry partner) above
T2 sequence (P15170 whole entry): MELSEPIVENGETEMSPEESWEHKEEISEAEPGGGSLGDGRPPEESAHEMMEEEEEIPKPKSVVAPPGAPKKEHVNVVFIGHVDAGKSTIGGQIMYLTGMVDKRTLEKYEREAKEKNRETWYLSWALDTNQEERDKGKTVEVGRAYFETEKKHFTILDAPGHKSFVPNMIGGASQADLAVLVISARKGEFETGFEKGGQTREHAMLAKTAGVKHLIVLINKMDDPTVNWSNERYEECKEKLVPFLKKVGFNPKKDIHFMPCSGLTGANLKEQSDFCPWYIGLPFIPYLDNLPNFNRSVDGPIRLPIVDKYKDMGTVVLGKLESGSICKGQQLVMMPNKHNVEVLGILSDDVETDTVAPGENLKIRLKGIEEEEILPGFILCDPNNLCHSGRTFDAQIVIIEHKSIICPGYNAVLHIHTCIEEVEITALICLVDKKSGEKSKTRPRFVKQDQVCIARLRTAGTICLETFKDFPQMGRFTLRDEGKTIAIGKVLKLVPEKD
T2 sequence (Q96SW2 whole entry): as the sequence (Q96SW2 whole entry) above
T2 sequence (Q16531 whole entry partner): as the sequence (Q16531 whole entry partner) above
T6 sequence (Q9UKS7 whole entry): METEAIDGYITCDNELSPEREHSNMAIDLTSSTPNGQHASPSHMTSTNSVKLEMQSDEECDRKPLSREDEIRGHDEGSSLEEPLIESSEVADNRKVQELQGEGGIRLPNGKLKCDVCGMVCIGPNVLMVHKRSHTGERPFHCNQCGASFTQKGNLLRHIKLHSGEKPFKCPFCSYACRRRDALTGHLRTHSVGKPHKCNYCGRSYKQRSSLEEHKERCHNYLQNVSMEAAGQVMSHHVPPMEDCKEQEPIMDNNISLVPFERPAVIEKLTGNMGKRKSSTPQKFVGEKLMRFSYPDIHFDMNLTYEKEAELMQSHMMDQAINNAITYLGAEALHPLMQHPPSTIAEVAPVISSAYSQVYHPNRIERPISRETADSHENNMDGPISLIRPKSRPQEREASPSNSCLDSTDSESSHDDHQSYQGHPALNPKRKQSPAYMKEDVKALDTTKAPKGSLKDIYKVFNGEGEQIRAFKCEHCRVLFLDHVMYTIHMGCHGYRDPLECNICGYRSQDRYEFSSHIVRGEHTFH
T6 sequence (Q96SW2 whole entry): as the sequence (Q96SW2 whole entry) above
T6 sequence (Q16531 whole entry partner): as the sequence (Q16531 whole entry partner) above

| SMILES | IKZF3 substrate protein remaining % [1] | GSPT1 substrate protein remaining % [2] | CK1α substrate protein remaining % [3] | WEE1 substrate protein remaining % [4] | IKZF1 substrate protein remaining % [5] | IKZF2 substrate protein remaining % [6] |
| --- | --- | --- | --- | --- | --- | --- |
| O=C1CCN(N2C(=O)c3ccc(CN4CCN(Cc5ccccc5-c5ccc(Cl)cc5)CC4)cc3C2=O)C(=O)N1 [GT-06432, 5-((4-((4′-chloro-[1,1′-biphenyl]-2-yl)methyl)piperazin-1-yl)methyl)-2-(2,4-dioxotetrahydropyrimidin-1(2H)-yl)isoindoline-1,3-dione] | B (80%< substrate protein remaining % ≤100%) | A (0% ≤ substrate protein remaining % ≤80%) | B (80%< substrate protein remaining % ≤100%) | A (0% ≤ substrate protein remaining % ≤80%) | A (0% ≤ substrate protein remaining % ≤80%) | B (80%< substrate protein remaining % ≤100%) |
| O=C1CCN(N2Cc3cc(CN4CCN(Cc5ccccc5-c5ccc(Cl)cc5)CC4)ccc3C2=O)C(=O)N1 [GT-06433, 1-(5-((4-((4′-chloro-[1,1′-biphenyl]-2-yl)methyl)piperazin-1-yl)methyl)-1-oxoisoindolin-2-yl)dihydropyrimidine-2,4(1H,3H)-dione] | A (0% ≤ substrate protein remaining % ≤80%) | A (0% ≤ substrate protein remaining % ≤80%) | B (80%< substrate protein remaining % ≤100%) | A (0% ≤ substrate protein remaining % ≤80%) | A (0% ≤ substrate protein remaining % ≤80%) | A (0% ≤ substrate protein remaining % ≤80%) |
| Cc1ccsc1C1=CCN(Cc2ccc3c(c2)C(=O)N(N2CCC(=O)NC2=O)C3=O)CC1 [GT-06434, 2-(2,4-dioxotetrahydropyrimidin-1(2H)-yl)-5-((4-(3-methylthiophen-2-yl)-3,6-dihydropyridin-1(2H)-yl)methyl)isoindoline-1,3-dione] | A (0% ≤ substrate protein remaining % ≤80%) | A (0% ≤ substrate protein remaining % ≤80%) | B (80%< substrate protein remaining % ≤100%) | A (0% ≤ substrate protein remaining % ≤80%) | B (80%< substrate protein remaining % ≤100%) | A (0% ≤ substrate protein remaining % ≤80%) |
| O=C1CCN(N2C(=O)c3ccc(CN4CC=C(c5ccsc5)CC4)cc3C2=O)C(=O)N1 [GT-06435, 2-(2,4-dioxotetrahydropyrimidin-1(2H)-yl)-5-((4-(thiophen-3-yl)-3,6-dihydropyridin-1(2H)-yl)methyl)isoindoline-1,3-dione] | A (0% ≤ substrate protein remaining % ≤80%) | A (0% ≤ substrate protein remaining % ≤80%) | B (80%< substrate protein remaining % ≤100%) | A (0% ≤ substrate protein remaining % ≤80%) | B (80%< substrate protein remaining % ≤100%) | A (0% ≤ substrate protein remaining % ≤80%) |
| C[C@@H]1CN(C(c2ccccc2)c2ccccc2)CCN1Cc1ccc2c(c1)CN(N1CCC(=O)NC1=O)C2=O [GT-06448, (R)-1-(5-((4-benzhydryl-2-methylpiperazin-1-yl)methyl)-1-oxoisoindolin-2-yl)dihydropyrimidine-2,4(1H,3H)-dione] | A (0% ≤ substrate protein remaining % ≤80%) | A (0% ≤ substrate protein remaining % ≤80%) | B (80%< substrate protein remaining % ≤100%) | B (80%< substrate protein remaining % ≤100%) | B (80%< substrate protein remaining % ≤100%) | A (0% ≤ substrate protein remaining % ≤80%) |
| C[C@@H]1CN(C(c2ccccc2)c2ccccc2)CCN1Cc1ccc2c(c1)C(=O)N(N1CCC(=O)NC1=O)C2=O [GT-06449, (R)-5-((4-benzhydryl-2-methylpiperazin-1-yl)methyl)-2-(2,4-dioxotetrahydropyrimidin-1(2H)-yl)isoindoline-1,3-dione] | A (0% ≤ substrate protein remaining % ≤80%) | A (0% ≤ substrate protein remaining % ≤80%) | B (80%< substrate protein remaining % ≤100%) | B (80%< substrate protein remaining % ≤100%) | B (80%< substrate protein remaining % ≤100%) | A (0% ≤ substrate protein remaining % ≤80%) |
| O=C1CCN(N2Cc3cc(CN4CC5CCC4CN5C(c4ccccc4)c4ccccc4)ccc3C2=O)C(=O)N1 (stereo not drawn) [GT-06450, 1-(5-((5-benzhydryl-2,5-diazabicyclo[2.2.2]octan-2-yl)methyl)-1-oxoisoindolin-2-yl)dihydropyrimidine-2,4(1H,3H)-dione] | A (0% ≤ substrate protein remaining % ≤80%) | A (0% ≤ substrate protein remaining % ≤80%) | B (80%< substrate protein remaining % ≤100%) | A (0% ≤ substrate protein remaining % ≤80%) | B (80%< substrate protein remaining % ≤100%) | A (0% ≤ substrate protein remaining % ≤80%) |
| O=C1CCN(N2C(=O)c3ccc(CN4CC5CCC4CN5C(c4ccccc4)c4ccccc4)cc3C2=O)C(=O)N1 (stereo not drawn) [GT-06451, 5-((5-benzhydryl-2,5-diazabicyclo[2.2.2]octan-2-yl)methyl)-2-(2,4-dioxotetrahydropyrimidin-1(2H)-yl)isoindoline-1,3-dione] | B (80%< substrate protein remaining % ≤100%) | B (80%< substrate protein remaining % ≤100%) | B (80%< substrate protein remaining % ≤100%) | A (0% ≤ substrate protein remaining % ≤80%) | B (80%< substrate protein remaining % ≤100%) | B (80%< substrate protein remaining % ≤100%) |
| O=C1CCN(N2Cc3cc(CN4CC5CCC(C4)N5C(c4ccccc4)c4ccccc4)ccc3C2=O)C(=O)N1 [GT-06452, 1-(5-((8-benzhydryl-3,8-diazabicyclo[3.2.1]octan-3-yl)methyl)-1-oxoisoindolin-2-yl)dihydropyrimidine-2,4(1H,3H)-dione] | B (80%< substrate protein remaining % ≤100%) | B (80%< substrate protein remaining % ≤100%) | B (80%< substrate protein remaining % ≤100%) | A (0% ≤ substrate protein remaining % ≤80%) | B (80%< substrate protein remaining % ≤100%) | B (80%< substrate protein remaining % ≤100%) |
| O=C1CCN(N2C(=O)c3ccc(CN4CC5CCC(C4)N5C(c4ccccc4)c4ccccc4)cc3C2=O)C(=O)N1 [GT-06453, 5-((8-benzhydryl-3,8-diazabicyclo[3.2.1]octan-3-yl)methyl)-2-(2,4-dioxotetrahydropyrimidin-1(2H)-yl)isoindoline-1,3-dione] | B (80%< substrate protein remaining % ≤100%) | B (80%< substrate protein remaining % ≤100%) | B (80%< substrate protein remaining % ≤100%) | B (80%< substrate protein remaining % ≤100%) | B (80%< substrate protein remaining % ≤100%) | A (0% ≤ substrate protein remaining % ≤80%) |
| O=C1CCN(N2Cc3cc(CN4C5CCC4CN(C(c4ccccc4)c4ccccc4)C5)ccc3C2=O)C(=O)N1 [GT-06454, 1-(5-((3-benzhydryl-3,8-diazabicyclo[3.2.1]octan-8-yl)methyl)-1-oxoisoindolin-2-yl)dihydropyrimidine-2,4(1H,3H)-dione] | B (80%< substrate protein remaining % ≤100%) | B (80%< substrate protein remaining % ≤100%) | B (80%< substrate protein remaining % ≤100%) | A (0% ≤ substrate protein remaining % ≤80%) | B (80%< substrate protein remaining % ≤100%) | B (80%< substrate protein remaining % ≤100%) |
| O=C1CCN(N2C(=O)c3ccc(CN4C5CCC4CN(C(c4ccccc4)c4ccccc4)C5)cc3C2=O)C(=O)N1 [GT-06455, 5-((3-benzhydryl-3,8-diazabicyclo[3.2.1]octan-8-yl)methyl)-2-(2,4-dioxotetrahydropyrimidin-1(2H)-yl)isoindoline-1,3-dione] | B (80%< substrate protein remaining % ≤100%) | B (80%< substrate protein remaining % ≤100%) | B (80%< substrate protein remaining % ≤100%) | A (0% ≤ substrate protein remaining % ≤80%) | B (80%< substrate protein remaining % ≤100%) | B (80%< substrate protein remaining % ≤100%) |
